This is an account of results in PubChem BioAssay AID1817 (Sanford-Burnham Center for Chemical Genomics, 2009).

Active and inactive are the calls of the source.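 How the source made its calls: active means displacement of at least 50% at 20 µM, with a fluorescence ratio check between 0.3 and a set limit; inactive means the rest.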

This assay concerns the target E3 ubiquitin-protein ligase SIAH1 (Homo sapiens) (UniProt Q8IUQ4). The assay can be described thus: blockers of Siah-1 interaction with plectin peptide – biochemical, fluorescence polarization, rhodamine-plectin, uHTS, primary screen (AID 1817). The settings on record: Siah-1 / rhodamine-plectin peptide fluorescence polarization. (Polarisation of emitted light reports the rotation of a fluorescent probe.)

Sequence of E3 ubiquitin-protein ligase SIAH1 (Homo sapiens) (Q8IUQ4 whole entry, looked up): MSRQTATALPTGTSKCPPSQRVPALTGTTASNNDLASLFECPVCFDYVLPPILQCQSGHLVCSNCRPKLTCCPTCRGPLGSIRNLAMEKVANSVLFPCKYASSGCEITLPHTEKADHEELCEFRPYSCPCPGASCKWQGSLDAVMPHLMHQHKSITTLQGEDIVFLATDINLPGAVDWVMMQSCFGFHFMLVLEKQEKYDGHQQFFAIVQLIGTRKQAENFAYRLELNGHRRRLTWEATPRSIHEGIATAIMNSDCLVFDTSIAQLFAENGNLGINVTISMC

Regarding `O=C(O)CCCNc1cc(N2CCN(C(=O)c3ccco3)CC2)c2noc3c2c1C(=O)c1ccccc1-3`, the IC50 was 4.21 µM.

Regarding `C[C@]12CCC3C(CC=C4C[C@@H](O)CC[C@@]43C)C1CCC2[C@]1(C)CCC(=O)O1` (some centres undefined), the IC50 was > 200 µM (inactive).

As for `S=c1[nH]nc(Cc2cccc3ccccc23)n1-c1ccccc1`, the IC50 was > 200 µM (inactive).

For the compound `O=C(CCn1ccc2ccccc21)NC1CCCc2ccccc21` (centres undefined), the IC50 was > 200 µM (inactive).

Turning to `O=C(NCc1ccc(Cl)cc1)c1cc(-c2cccs2)on1`, the IC50 was 8.13 µM.

As to `CC(=O)Nc1ccc(N=Cc2c(O)c(C(=O)Nc3ccccc3)cc3ccccc23)cc1`, the IC50 was 24.9 µM.

On to `O=C(O)CCN1C(=O)/C(=C/c2cn(-c3ccccc3)nc2-c2cccs2)SC1=S`, for which the IC50 is > 200 µM (inactive).

Consider `COc1cc(CC(=O)NCc2ccc3c(c2)OCO3)cc(OC)c1OC`, for which the IC50 is > 200 µM (inactive).

`CCCCn1c(NS(=O)(=O)c2ccccc2)c(S(=O)(=O)c2ccc(C)cc2)c2nc3ccccc3nc21`: the IC50 is > 200 µM (inactive).

Turning to `O=c1[nH]c2ccc(S(=O)(=O)N3CCCCC3)cc2s1`, the IC50 is > 200 µM (inactive).

Consider `O=c1[nH]n(-c2ccc([N+](=O)[O-])cc2)c(=O)c2ccccc12`, for which the IC50 is 15.7 µM.

For `O=C(O)c1cc(Cl)c(Cl)cc1C(=O)Nc1cccc2cccnc12`, the IC50 was > 200 µM (inactive).

Take `N#CC1C=Cc2ccccc2N1C(=O)c1ccccc1` (centres undefined): the IC50 is > 200 µM (inactive).

Regarding `CC1CCN(S(=O)(=O)c2ccc3c(c2)c(=O)c(C(=O)NCc2ccccc2Cl)cn3C)CC1`, the IC50 was > 200 µM (inactive).

Take `COC(=O)c1c(C(=O)OC)c2cccc3cc(-c4ccccc4)c4ccc1c4n32`: the IC50 entry is “inactive”.

For `O=c1ccc2c(-c3ccccc3)c3ccc(O)cc3oc-2c1`, the IC50 was 11.1 µM.

As to `CC(=O)c1ccc(S(=O)(=O)Nc2ccc(-c3ccc4nnc(C)n4n3)cc2)cc1`, the IC50 is > 200 µM (inactive).

In the case of `O=S(=O)(Nc1c(S(=O)(=O)c2ccccc2)c2nc3ccccc3nc2n1C1CCCCC1)c1ccccc1`, the IC50 is > 200 µM (inactive).

As to `COc1ccc(C(C(=O)NCc2ccccc2)N(Cc2ccco2)C(=O)c2cnccn2)cc1` (centres undefined), the IC50 was > 200 µM (inactive).

As to `O=S(=O)(Nc1cc2nc3ccccc3nc2n1Cc1ccccc1)c1ccc(Cl)cc1`, the IC50 was > 200 µM (inactive).

In the case of `CC1=CC(C)(C)N2C(=O)C(=Nc3ccc(O)cc3)c3cccc1c32`, the IC50 result is “inactive”.

As for `CCN(CC)c1ccc(C=N/C(C#N)=C(\N)C#N)cc1`, the IC50 was > 200 µM (inactive).

As for `CC(C)COc1ccc(-c2nn(-c3ccccc3)cc2/C=C2/SC(=S)N(CC(=O)O)C2=O)cc1`, the IC50 was > 200 µM (inactive).

On to `Oc1ccc(N=Cc2sc3ccccc3c2Cl)cc1`, for which the IC50 result is “inactive”.

In the case of `NS(=O)(=O)c1ccc(NS(=O)(=O)c2ccc(NC(=O)c3ccc(-c4ccccc4)cc3)cc2)cc1`, the concentration for half-maximal inhibition (IC50) was 1.56 µM.

Consider `CSc1n[nH]c(NCc2ccc(Cl)cc2)n1`, for which the IC50 was > 200 µM (inactive).

For the compound `CCn1c(O)c(C=Nc2ccc(N3CCOCC3)cc2)c(=O)n(CC)c1=S`, the IC50 is > 200 µM (inactive).

`CCOc1cc(/C=C(\C#N)C(=O)Nc2ccccc2C(=O)O)ccc1OC(=O)c1ccc(C)cc1`: the IC50 was > 200 µM (inactive).

Consider `O=C(Nc1ccccc1N1CCCCC1)c1ccc(-c2cccc(Cl)c2)o1`, for which the IC50 is > 200 µM (inactive).

Turning to `Oc1ccc(N=Cc2ccc(OCc3ccccc3)cc2)cc1`, the IC50 result was “inactive”.

With `O=S(=O)(O)c1cc(O)c2c(O)c(N=Nc3cc(Cl)ccc3O)c(S(=O)(=O)O)cc2c1`, the IC50 is 5.13 µM.

Turning to `O=C(NCc1c(F)cccc1F)c1cc(COc2c(F)cccc2F)on1`, the IC50 was > 200 µM (inactive).

Regarding `CCN(CC)CCOC(=O)c1ccc(N/C=C(/C#N)c2nc(-c3cc4ccccc4oc3=O)cs2)cc1`, the IC50 was 11.2 µM.

Turning to `COCCCNc1c2c3c(cccc3[nH]c1=O)C(=O)c1ccccc1-2`, the IC50 was > 200 µM (inactive).

The IC50 is the concentration that inhibits the measured activity by half.
